Target: T1, XynR (WT) (Halalkalibacterium halodurans, UniProt P07528)
T1 construct: gene xynA; pET-21b(+)-XynR expressed in E. coli BL21(DE3), purified on HisTrap (His-tagged); residues 2-359 modelled in 2 chains; catalytic E150/E256
Assay: X-ray crystallography, […] A (co-crystallisation and soaking)
Assay type: binding
Conditions: 0.35 M xylobiose, Tris-HCl pH 8.0 mixed with reservoir pH 4.6 (0.02 M CaCl2, acetate, MPD), 20 °C; active site, subsites +1 and +2

T1 sequence (P07528 46-396): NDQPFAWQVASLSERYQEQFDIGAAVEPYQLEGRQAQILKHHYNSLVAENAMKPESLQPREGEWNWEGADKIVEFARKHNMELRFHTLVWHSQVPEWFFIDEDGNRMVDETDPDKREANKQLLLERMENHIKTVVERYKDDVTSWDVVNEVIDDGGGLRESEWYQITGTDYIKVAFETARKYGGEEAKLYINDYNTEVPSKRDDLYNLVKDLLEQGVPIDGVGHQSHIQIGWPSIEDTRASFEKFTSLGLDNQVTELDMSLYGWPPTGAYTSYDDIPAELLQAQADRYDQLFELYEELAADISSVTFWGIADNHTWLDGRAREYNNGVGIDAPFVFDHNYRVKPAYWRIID

SMILES: OC1OC[C@@H](O[C@@H]2OC[C@@H](O)[C@H](O)[C@H]2O)[C@H](O)[C@H]1O (stereo partly shown) [xylobiose]
- X-ray crystallography, 1.80 A (co-crystallisation and soaking): we made crystallographic analysis of WT complexed with xylobiose

— article PMC10987496, “Activity-stability trade-off observed in variants at position 315 of the GH10 xylanase XynR” (Scientific Reports, 2024)
